The data set can be described thus: Plasma pharmacokinetics after single oral dose. Format: in vivo. The note with it: mice plasma, single oral 500 mg·kg^−1, female mice. How it is done:
Ninety female KM mice of 8–10 weeks of age (20–22 g) were divided randomly into 15 groups, and, after fasting for 12 h, the mice in other experiments were oral administrated at the dose of 500 mg·kg^−1 bw. About 500 μL blood samples were collected at 0.5, 1, 2, 3, 4, 5, 6, 8, 10, 12, 16, 20, 24, 30 and 36 h into heparinized tubes after the intragastric administration of MHO7. All blood samples were immediately centrifuged at 8000 g for 5 min and the resulting plasma was transferred and then processed as described in sample preparation for the analysis by LC-MS/MS. MHO7 levels in plasma were quantified by HPLC–MS/MS. The calibration curve was constructed by plotting the peak area ratio of MHO7 to the internal standard and the linearity was determined by weighted (1/x) linear regression analysis. The regression equation of the calibration curve was then used to calculate the concentration of MHO7 in the plasma. QC samples and standard curve series solutions were prepared in the same way of blank plasma. The concentrations of HQC, MQC, and LQC were 5, 0.5, and 0.05 μM·L^−1, respectively, and the concentrations of standard curve series solutions were 5, 2.5, 1, 0.5, 0.25, 0.1, 0.05, and 0.01 μM·L^−1.
Data for each group are presented as mean ± SD. Statistical significance of different formulations were measured by one-way analysis of variance (ANOVA) followed by the Tukey Kramer multiple comparison test, using SPSS software version 14.0 (SPSS, Chicago, IL, USA), and the statistical significance was expressed by a p-value of less than 0.05. The main pharmacokinetic parameters of MHO7 was fitted by the average mean of a group in each time point with the Phoenix WinNonLin software version 6.3 (Pharsight, Cary, NC, USA). The gut microbiome analysis was performed using the free online platform of Majorbio Cloud Platform (www.majorbio.com).

The structures appear in SMILES notation.

The values below come from paper PMC6950057, “Toxicity, Pharmacokinetics, and Gut Microbiome of Oral Administration of Sesterterpene MHO7 Derived from a Marine Fungus” (Marine Drugs, 2019).

In turn, `CC(C)=C/C=C/[C@H](C)[C@H]1CC[C@]2(C)C[C@@H]3C(C)=CC(=O)[C@H]3/C(C=O)=C\C[C@@H]12` [MHO7, 6-epi-ophiobolin G] had a V/F of 479.02 L/kg. Further, where the note is “KM, mouse”, the AUC (in general, concentration integrated over time) was 10500 ng·h/mL; the Cmax (commonly the highest concentration seen after dosing) is 1380 ng/mL; the MRT – broadly, the average time that molecules of a dose stay in the body – worked out at 8.76 h; the half-life (usually the time in which the quantity being followed falls by half) was 6.97 h. The k el (KM, mouse, read-out: Lambda_z (converted)) was 2.78e-05 s⁻¹. The time to peak (Tmax) – broadly, the time from dosing to the highest level – (female, KM, mouse, plasma, po, 500 mg/kg) is approximately 8 h.
